From paper PMC7918798, “Coumarins from Seseli devenyense Simonk.: Isolation by Liquid–Liquid Chromatography and Potential Anxiolytic Activity Using an In Vivo Zebrafish Larvae Model” (International Journal of Molecular Sciences, 2021)

Legend:
[1] = Shake-flask partition coefficient in HEMWat biphasic solvent systems; format: physicochemical
Description: The screening for suitable biphasic solvent systems to isolate the target coumarins from Seseli devenyense methanolic fruit extract (SDMFE) was performed by shake-flask experiments. The partition coefficient (Pi), defined as the ratio of the concentration of a solute in the stationary phase to its concentration in the mobile phase, was used as the screening parameter. The experimental protocol was previously descried by Widelski et al. (2018). Briefly, 1 mg of crude extract was dissolved in 4 mL of biphasic solvent systems obtained by mixing various volumes of hexane, ethyl acetate, methanol and water (HEMWat). After vigorous shaking, the flasks were left until the complete separation of the layers. Then, equal volumes of the upper and lower phase (0.5 mL) were taken, evaporated to dryness, dissolved again in methanol (1.0 mL) and analyzed by HPLC-DAD analysis, as descried below.
The preliminary analysis of the SDMFE, determination of the partition coefficient values and purity of collected fractions were assessed by HPLC-DAD. The HPLC-DAD analyses were performed on a Shimadzu HPLC (Shimadzu, Tokyo, Japan) equipped with automatic degasser (DGU-20A3R), quaternary pump (LC-20AD), auto-sampler (SIL-20AHT) and diode array detector (SPD-M20A). The separations were carried out on an Agilent Zorbax Eclipse XDB-C18 (Agilent, Santa Clara, CA, USA) (250 mm × 4.6 mm, 5 μm) column with a mobile phase consisting of water (solvent A) and methanol (solvent B). The following gradient was applied: 0 min: 50% B; 5 min: 60% B; 25 min: 80% B; 30–35 min: 100% B. The flow-rate was 1 mL/min; the column temperature was set at 25 °C. The injection volume of sample was 10 μL and detection was carried out at 320 nm.

5-dpf zebrafish larvae [2] = assay: Zebrafish larvae light/dark transition challenge: locomotor activity and thigmotaxis (anxiolytic activity assay, Phase 2); format: in vivo, Danio rerio
Description: (§1) The research protocol was adopted after Schnorr et al. (2012). The anxiolytic activity was evaluated in 24-well plates. The inner and outer zones of the well were delineated according to Schnorr et al. (2012). […] It could be also described as decreasing thigmotaxis. 1% DMSO in E3 solution was used as the negative control, 10 μM diazepam was used as the positive control. 32 larvae were used for each concentration.
(§2) The experimental procedure was divided into three stages: • (a) Preincubation: larvae were pre-incubated in a 1500 μL solution of tested compounds in individual wells of a 24-well plate at 28.5 °C, in dark, for 30 min. • (b) Acclimatization (min 0–10): plates were placed in an automated video recording bench station (ViewPoint, Lyon, France). Larvae were allowed to acclimatize to the test apparatus for 10 min. During this period, lights were kept on. • (c) Visual motor challenge (min 11–95): this stage experiment was divided into two phases: Phase 1—continuous illumination: larvae were subjected to continuous light for 40 min, with the purpose to determine the spontaneous locomotor activity and thigmotaxis behavior (before applying the factor causing the anxiety). Phase 2—light/dark transition: larvae were subjected to three cycles, each involving the 10-min lighting phase (continuous light) and the 5-min dark phase (anxiogenic factor).

5-dpf zebrafish larvae [3] = assay: Zebrafish larvae 40 min continuous illumination: spontaneous locomotor activity and thigmotaxis (Phase 1); format: in vivo, Danio rerio; details: for spontaneous locomotor activity (average distance moved): 40 min continuous illumination
Description: as §1, §2

[4] = dark phase vs DMSO-treated group in dark phase, 12.5 μM
[5] = dark phase vs DMSO-treated group in dark phase, 25 μM
[6] = dark phase vs light phase within same group, 1.5 μM
[7] = dark phase vs light phase within same group, 3 μM
[8] = dark phase vs light phase within same group, 6 μM
[9] = dark phase vs light phase within same group, 9 μM
[10] = dark phase vs light phase within same group, 12.5 μM
[11] = dark phase vs light phase within same group, 25 μM
[12] = dark phase vs DMSO-treated group in dark phase, 50 μM
[13] = dark phase vs light phase within same group, 50 μM
[14] = dark phase vs light phase, concentration not stated
[15] = light phase vs DMSO-treated group in light phase, 12.5 μM
[16] = light phase vs DMSO-treated group in light phase, 25 μM
[17] = light phase vs DMSO-treated group in light phase, 50 μM

CC1(C)Oc2ccc3ccc(=O)oc3c2[C@H](O)[C@@H]1O [cis-khellactone]
not observed: percentage of distance moved in central area (5-dpf zebrafish larvae [2]; dark phase vs DMSO-treated group in dark phase, all tested concentrations (1.5, 3, 6, 9, 12.5, 25 μM))
significant increases: percentage of time spent in central area (5-dpf zebrafish larvae [2]; dark phase vs DMSO-treated group in dark phase, 1.5 μM) | percentage of time spent in central area (5-dpf zebrafish larvae [2]; dark phase vs DMSO-treated group in dark phase, 3 μM) | percentage of time spent in central area (5-dpf zebrafish larvae [2]; dark phase vs DMSO-treated group in dark phase, 9 μM) | percentage of time spent in central area (5-dpf zebrafish larvae [2]; [4]) | percentage of time spent in central area (5-dpf zebrafish larvae [2]; [5])
has not influenced: spontaneous locomotor activity (average distance moved) (5-dpf zebrafish larvae [3]; all tested concentrations (1.5, 3, 6, 9, 12.5, 25 µM))
2.50: Partition Coefficients (Pi) ([1]; solvent system I, hexane/ethyl acetate/methanol/water 2/5/2/5 (v/v/v/v))
weakest activity: anxiolytic activity (authors' overall statement) (5-dpf zebrafish larvae [2]; zebrafish larvae model)
significant increase: percentage of time spent in central area (5-dpf zebrafish larvae [2]; light phase vs DMSO-treated group in light phase, 6 μM) | percentage of time spent in central area (5-dpf zebrafish larvae [2]; light phase vs DMSO-treated group in light phase, 9 μM)
increase: locomotor activity (average distance moved per 1-min time bin) (5-dpf zebrafish larvae [2]; [6]) | percentage of distance moved in central area (5-dpf zebrafish larvae [2]; [6]) | percentage of time spent in central area (5-dpf zebrafish larvae [2]; [6]) | locomotor activity (average distance moved per 1-min time bin) (5-dpf zebrafish larvae [2]; [7]) | percentage of time spent in central area (5-dpf zebrafish larvae [2]; [7]) | locomotor activity (average distance moved per 1-min time bin) (5-dpf zebrafish larvae [2]; [8]) | percentage of distance moved in central area (5-dpf zebrafish larvae [2]; [8]) | locomotor activity (average distance moved per 1-min time bin) (5-dpf zebrafish larvae [2]; [9]) | percentage of distance moved in central area (5-dpf zebrafish larvae [2]; [9]) | locomotor activity (average distance moved per 1-min time bin) (5-dpf zebrafish larvae [2]; [10]) | percentage of distance moved in central area (5-dpf zebrafish larvae [2]; [10]) | percentage of time spent in central area (5-dpf zebrafish larvae [2]; [10]) | locomotor activity (average distance moved per 1-min time bin) (5-dpf zebrafish larvae [2]; [11]) | percentage of distance moved in central area (5-dpf zebrafish larvae [2]; [11]) | percentage of time spent in central area (5-dpf zebrafish larvae [2]; [11])
not showed: time spent in the central arena (5-dpf zebrafish larvae [3]; 40 min continuous light, one-way ANOVA between tested groups, 1.5, 3, 6, 9, 12.5, 25 µM)
not noticed: locomotor activity (average distance moved per 1-min time bin) (5-dpf zebrafish larvae [2]; light phase vs DMSO-treated group in light phase, all tested concentrations (1.5, 3, 6, 9, 12.5, 25 μM))

C/C=C(/C)C(=O)O[C@H]1c2c(ccc3ccc(=O)oc23)OC(C)(C)[C@H]1O [d-laserpitin]
significant increases: percentage of distance moved in central area (5-dpf zebrafish larvae [2]; [4]) | percentage of time spent in central area (5-dpf zebrafish larvae [2]; [4]) | percentage of distance moved in central area (5-dpf zebrafish larvae [2]; [5]) | percentage of time spent in central area (5-dpf zebrafish larvae [2]; [5]) | percentage of distance moved in central area (5-dpf zebrafish larvae [2]; [12]) | percentage of time spent in central area (5-dpf zebrafish larvae [2]; [12])
significant increase: percentage of time spent in central area (5-dpf zebrafish larvae [2]; [15]) | percentage of distance moved in central area (5-dpf zebrafish larvae [2]; [16]) | percentage of time spent in central area (5-dpf zebrafish larvae [2]; [16]) | percentage of distance moved in central area (5-dpf zebrafish larvae [2]; [17]) | percentage of time spent in central area (5-dpf zebrafish larvae [2]; [17])
significant decreases: locomotor activity (average distance moved per 1-min time bin) (5-dpf zebrafish larvae [2]; [4]) | locomotor activity (average distance moved per 1-min time bin) (5-dpf zebrafish larvae [2]; [5]) | locomotor activity (average distance moved per 1-min time bin) (5-dpf zebrafish larvae [2]; [12])
decreased: percentage of distance moved in central area (5-dpf zebrafish larvae [2]; [15])
0.84: Partition Coefficients (Pi) ([1]; solvent system II, hexane/ethyl acetate/methanol/water 6/5/6/5 (v/v/v/v))
has not influe nced: spontaneous locomotor activity (average distance moved) (5-dpf zebrafish larvae [3]; all concentrations (12.5, 25, 50 µM))
significantly increased: distance moved by the larvae in the central arena (5-dpf zebrafish larvae [2]; [14]) | time spent in the central area (5-dpf zebrafish larvae [2]; [14])
increase: percentage of distance moved in central area (5-dpf zebrafish larvae [2]; [10]) | locomotor activity (average distance moved per 1-min time bin) (5-dpf zebrafish larvae [2]; [11]) | percentage of distance moved in central area (5-dpf zebrafish larvae [2]; [11]) | percentage of time spent in central area (5-dpf zebrafish larvae [2]; [11]) | locomotor activity (average distance moved per 1-min time bin) (5-dpf zebrafish larvae [2]; [13]) | percentage of distance moved in central area (5-dpf zebrafish larvae [2]; [13]) | percentage of time spent in central area (5-dpf zebrafish larvae [2]; [13])
